The source of these data is US9067891B2, “1,4-disubstituted 3-cyano-pyridone derivatives and their use as positive allosteric modulators of mGluR2-receptors” (JANSSEN PHARMACEUTICALS, INC., priority 2007, dated 2015).

The melting point is the temperature, or range, at which the solid turns liquid.

Several values for one entry are separate records, joined by “and”; a condition that tells them apart may be missing. Equal values may be shown once.

One data set deals with T1, human mGluR2 receptor (Homo sapiens, UniProt Q14416).
T1 construct: expressed in transfected cells; host or cells: CHO cells (membrane preparation)
Nature of the data set: [35S]GTPγS binding assay (GTPγS-PAM), membranes from CHO cells transfected with human mGluR2. It is filed as biochemical. The conditions noted are these: positive allosteric modulation in presence of glutamate at predetermined EC25 concentration, averages of duplicate values of 11-concentration response curves, pEC50 = -logEC50, error about 0.3 log-units; for EC50: read-out: GTPgS - hR2 PAM pEC50 (converted). From the text: The compounds provided in the present invention are positive allosteric modulators of mGluR2. These compounds appear to potentiate glutamate responses by binding to an allosteric site other than the glutamate binding site. The response of mGluR2 to a concentration of glutamate is increased when compounds of formula (I) are present. Compounds of formula (I) are expected to have their effect substantially at mGluR2 by virtue of their ability to enhance the function of the receptor. The behaviour of positive allosteric modulators tested at mGluR2 using the [^35S]GTPγS binding assay method described below and which is suitable for the identification of such compounds, and more particularly the compounds according to formula (I), are shown in Table 3.
[^35S]GTPγS Binding Assay
The [^35S]GTPγS binding assay is a functional membrane-based assay used to study G-protein coupled receptor (GPCR) function whereby incorporation of a non-hydrolysable form of GTP, [^35S]GTPγS (guanosine 5′-triphosphate, labelled with […] ^35S), is measured. The G-protein […] catalyzes the exchange of guanosine 5′-diphosphate (GDP) by guanosine triphosphate (GTP) and on activation of the GPCR by an agonist, [^35S]GTPγS, becomes incorporated and cannot be cleaved to continue the exchange cycle (Harper (1998) Current Protocols in Pharmacology 2.6.1-10, John Wiley & Sons, Inc.). […] Here we describe the use of the [^35S]GTPγS binding assay using membranes from cells transfected with the human mGluR2 receptor and adapted from Sehaffhauser et al ((2003) Molecular Pharmacology 4:798-810) for the detection of the positive allosteric modulation (PAM) properties of the compounds of this invention.
CHO-cells were cultured to pre-confluence and stimulated with 5 mM butyrate for 24 hours, prior to washing in PBS, and then collection by scraping in homogenisation buffer (50 mM Tris-HCl buffer, pH 7.4, 4° C.). Cell lysates were homogenized briefly (15 s) using an ultra-turrax homogenizer. The homogenate was centrifuged at 23 500×g for 10 minutes and the supernatant discarded. The pellet was resuspended in 5 mM Tris-HCl, pH 7.4 and centrifuged again (30 000×g, 20 min, 4° C.). The final pellet was resuspended in 50 mM HEPES, pH 7.4 and stored at −80° C. in appropriate aliquots before use. Protein concentration was determined by the Bradford method (Bio-Rad, USA) with bovine serum albumin as standard.
Measurement of mGluR2 positive allosteric modulatory activity of test compounds in membranes containing human mGluR2 was performed using frozen membranes that were thawed and briefly homogenised prior to pre-incubation in 96-well microplates (15 μg/assay well, 30 minutes, 30° C.) in assay buffer (50 mM HEPES pH 7.4, 100 mM NaCl, 3 mM MgCl2, 50 μM GDP, 10 μg/ml saponin,) with increasing concentrations of positive allosteric modulator (from 0.3 nM to 50 μM) and either a minimal pre-determined concentration of glutamate (PAM assay), or no added glutamate. For the PAM assay, membranes were pre-incubated with glutamate at EC25 concentration, i.e. a concentration that gives 25% of the maximal response glutamate, and is in accordance to published data (Pin et al. (1999) Eur. J. Pharmacol. 375:277-294). After addition of [^35S]GTPγS (0.1 nM, f.c.) to achieve a total reaction volume of 200 μl, microplates were shaken briefly and further incubated to allow [^35S]GTPγS incorporation on activation (30 minutes, 30° C.). The reaction was stopped by rapid vacuum filtration over glass-fibre filter plates (Unifilter 96-well GF/B filter plates, Perkin-Elmer, Downers Grove, USA) microplate using a 96-well plate cell harvester (Filtermate, Perkin-Elmer, USA), and then by washing three times with 300 μl of ice-cold wash buffer (Na2PO4.2H20 10 mM, NaH2PO4.H20 10 mM, pH=7.4). […]
Background: GTPγS resists hydrolysis and so accumulates on activated G proteins.

T1 sequence (Q14416 19-872): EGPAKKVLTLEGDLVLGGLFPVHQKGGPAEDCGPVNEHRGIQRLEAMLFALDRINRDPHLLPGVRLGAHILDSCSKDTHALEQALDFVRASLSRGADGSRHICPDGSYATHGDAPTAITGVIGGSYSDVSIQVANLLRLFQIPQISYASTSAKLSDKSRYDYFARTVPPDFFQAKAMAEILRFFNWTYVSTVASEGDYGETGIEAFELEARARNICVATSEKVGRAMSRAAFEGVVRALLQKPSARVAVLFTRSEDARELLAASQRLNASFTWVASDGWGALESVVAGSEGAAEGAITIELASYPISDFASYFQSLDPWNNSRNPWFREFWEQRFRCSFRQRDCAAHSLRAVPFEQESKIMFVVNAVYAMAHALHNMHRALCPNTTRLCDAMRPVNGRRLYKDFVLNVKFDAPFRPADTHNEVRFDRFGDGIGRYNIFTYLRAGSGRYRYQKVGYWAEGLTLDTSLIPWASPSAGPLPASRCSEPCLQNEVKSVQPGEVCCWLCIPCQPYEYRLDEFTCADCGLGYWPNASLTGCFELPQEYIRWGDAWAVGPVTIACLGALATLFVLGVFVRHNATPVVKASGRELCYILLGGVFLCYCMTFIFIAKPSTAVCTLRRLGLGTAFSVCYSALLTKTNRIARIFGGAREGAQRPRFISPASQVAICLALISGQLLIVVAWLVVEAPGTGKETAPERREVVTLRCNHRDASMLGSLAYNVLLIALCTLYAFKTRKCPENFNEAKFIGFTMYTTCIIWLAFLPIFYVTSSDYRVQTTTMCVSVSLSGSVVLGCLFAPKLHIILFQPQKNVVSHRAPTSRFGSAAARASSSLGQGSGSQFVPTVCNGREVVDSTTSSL

Regarding `Cc1cc(C)nc(Oc2ccc(-c3ccn(CC4CC4)c(=O)c3C#N)c(F)c2)c1` [Compound 1, 1-Cyclopropylmethyl-4-[4-(4,6-dimethyl-pyridin-2-yloxy)-2-fluoro-phenyl]-2-oxo-1,2-dihydro-pyridine-3-carbonitrile], the melting point stood at 137 °C. In addition, the EC50 at human mGluR2 receptor was 0.813 µM.

As to `CCCCn1ccc(-c2ccc(Oc3ccc(C)nc3C)c(F)c2)c(C#N)c1=O` [Compound 2, 1-Butyl-4-[4-(2,6-dimethyl-pyridin-3-yloxy)-3-fluoro-phenyl]-2-oxo-1,2-dihydro-pyridine-3-carbonitrile], the melting point turned out to be 156.4 °C. Moreover, the EC50 on human mGluR2 receptor was 0.138 µM.

Turning to `Cc1ccc(Oc2ccc(-c3ccn(CC4CC4)c(=O)c3C#N)cc2F)c(C)n1` [Compound 3, 1-Cyclopropylmethyl-4-[4-(2,6-dimethyl-pyridin-3-yloxy)-3-fluoro-phenyl]-2-oxo-1,2-dihydro-pyridine-3-carbonitrile], the melting point amounted to 152.7 °C. The EC50 on human mGluR2 receptor was 0.457 µM.

`CCCCn1ccc(-c2ccc(Oc3ccnc(C)c3)cc2F)c(C#N)c1=O` [Compound 4, 1-Butyl-4-[2-fluoro-4-(2-methyl-pyridin-4-yloxy)-phenyl]-2-oxo-1,2-dihydro-pyridine-3-carbonitrile] returned a melting point of 127.1 °C. Further, the “GTPgS - hR2 PAM pEC50” value on human mGluR2 receptor is on record as 6.41.

In the case of `CCCCn1ccc(-c2ccc(Oc3ccnc(C)c3)c(F)c2)c(C#N)c1=O` [Compound 5, 1-Butyl-4-[3-fluoro-4-(2-methyl-pyridin-4-yloxy)-phenyl]-2-oxo-1,2-dihydro-pyridine-3-carbonitrile], the melting point was 125.2 °C and 125.4 °C. Moreover, on human mGluR2 receptor, the EC50 was 0.437 µM.

For `CCCCn1ccc(-c2ccc(Oc3cc(C)nc(C)c3)cc2F)c(C#N)c1=O` [Compound 6, 1-Butyl-4-[4-(2,6-dimethyl-pyridin-4-yloxy)-2-fluoro-phenyl]-2-oxo-1,2-dihydro-pyridine-3-carbonitrile], the melting point worked out at 169.9 °C. The EC50 on human mGluR2 receptor was 0.437 µM.

As for `CCCCn1ccc(-c2ccc(Oc3cc(C)nc(C)c3)c(F)c2)c(C#N)c1=O` [Compound 7, 1-Butyl-4-[4-(2,6-dimethyl-pyridin-4-yloxy)-3-fluoro-phenyl]-2-oxo-1,2-dihydro-pyridine-3-carbonitrile], at human mGluR2 receptor, the EC50 is 0.347 µM.

On to `Cc1cc(Oc2ccc(-c3ccn(CC4CC4)c(=O)c3C#N)c(F)c2)cc(C)n1` [Compound 8, 1-Cyclopropylmethyl-4-[4-(2,6-dimethyl-pyridin-4-yloxy)-2-fluoro-phenyl]-2-oxo-1,2-dihydro-pyridine-3-carbonitrile], for which the EC50 on human mGluR2 receptor was 0.794 µM.

Regarding `Cc1cc(Oc2ccc(-c3ccn(CC4CC4)c(=O)c3C#N)cc2F)cc(C)n1` [Compound 9, 1-Cyclopropylmethyl-4-[4-(2,6-dimethyl-pyridin-4-yloxy)-3-fluoro-phenyl]-2-oxo-1,2-dihydro-pyridine-3-carbonitrile], the melting point is 201.2 °C. Besides, the EC50 at human mGluR2 receptor is 0.708 µM.

`Cc1nccc(Oc2ccc(-c3ccn(CC4CC4)c(=O)c3C#N)c(F)c2)c1C` [Compound 10, 1-Cyclopropylmethyl-4-[4-(2,3-dimethyl-pyridin-4-yloxy)-2-fluoro-phenyl]-2-oxo-1,2-dihydro-pyridine-3-carbonitrile]: the EC50 on human mGluR2 receptor is 0.372 µM.

For the compound `Cc1nccc(Oc2ccc(-c3ccn(CC4CC4)c(=O)c3C#N)cc2F)c1C` [Compound 11, 1-Cyclopropylmethyl-4-[4-(2,3-dimethyl-pyridin-4-yloxy)-3-fluoro-phenyl]-2-oxo-1,2-dihydro-pyridine-3-carbonitrile], on human mGluR2 receptor, the EC50 is 0.676 µM.

Compound `CCCCn1ccc(-c2ccc(Oc3cccnc3C)c(F)c2)c(C#N)c1=O` [Compound 12] returned a melting point of 104.8 °C. The EC50 on human mGluR2 receptor is 0.537 µM.

For `Cc1cc(Oc2ccc(-c3ccn(CCC4CC4)c(=O)c3C#N)c(F)c2)ccn1` [Compound 13], the melting point was found to be 110.7 °C. The EC50 at human mGluR2 receptor was 0.417 µM.

For `Cc1ncccc1Oc1ccc(-c2ccn(CCC3CC3)c(=O)c2C#N)cc1F` [Compound 14], the melting point amounted to 145.8 °C. The EC50 at human mGluR2 receptor is 0.38 µM.

Take `CCCCn1ccc(-c2cc(F)c(Oc3ccnc(C)c3)c(F)c2)c(C#N)c1=O` [Compound 15]: the melting point is 172.2 °C. Further, the EC50 on human mGluR2 receptor is 0.708 µM.

In turn, `CCCCn1ccc(-c2ccc(Oc3cccnc3C)cc2)c(C#N)c1=O` [Compound 16] came in with a melting point of 136.7 °C. Also, the EC50 on human mGluR2 receptor is 0.437 µM.

On to `CCCCn1ccc(-c2ccc(Oc3cc(C)ccn3)cc2)c(C#N)c1=O` [Compound 17], for which the EC50 on human mGluR2 receptor was 1 µM.

In the case of `CCCCn1ccc(-c2ccc(Oc3ccnc(C)c3)cc2)c(C#N)c1=O` [Compound 18, 3-cyano-1-butyl-4-[4-(2-methyl-pyridin-4-yloxy)-phenyl]-pyridine-2(1H)-one], the melting point stood at 121 °C.

Consider `N#Cc1c(-c2ccc(Oc3ccnc(Cl)c3)cc2)ccn(CC2CC2)c1=O` [Compound 19], for which, at human mGluR2 receptor, the EC50 is 0.158 µM.

As for `CCCCn1ccc(-c2ccc(Oc3ccncc3Cl)cc2)c(C#N)c1=O` [Compound 20], the EC50 on human mGluR2 receptor was 0.631 µM.
